Reference: ChEMBL document CHEMBL3525955, “Glucuronidation of the red clover isoflavone irilone by liver microsomes from different species and human UDP-glucuronosyltransferases” (Drug Metab Dispos, 2011)

Experiments:
Liver microsome [1] = test: Drug metabolism in Sprague-Dawley rat liver microsomes assessed as IRI-O-4'-monoglucuronide formation incubated for 5 mins prior to UDPGA addition measured after 90 mins by Eadie-Hoftsee plot analysis; assay type: ADME; details: 1.5 h
[2] = molecular target: T1, UDP-glucuronosyltransferase 1A7 (Homo sapiens, UniProt Q9HAW7); test: Activity of human recombinant UGT1A7 assessed as intrinsic clearance incubated for 5 mins prior to UDPGA addition measured after 90 mins; assay type: ADME; details: recombinant enzyme, 1.5 h
T1 sequence (Q9HAW7 whole entry): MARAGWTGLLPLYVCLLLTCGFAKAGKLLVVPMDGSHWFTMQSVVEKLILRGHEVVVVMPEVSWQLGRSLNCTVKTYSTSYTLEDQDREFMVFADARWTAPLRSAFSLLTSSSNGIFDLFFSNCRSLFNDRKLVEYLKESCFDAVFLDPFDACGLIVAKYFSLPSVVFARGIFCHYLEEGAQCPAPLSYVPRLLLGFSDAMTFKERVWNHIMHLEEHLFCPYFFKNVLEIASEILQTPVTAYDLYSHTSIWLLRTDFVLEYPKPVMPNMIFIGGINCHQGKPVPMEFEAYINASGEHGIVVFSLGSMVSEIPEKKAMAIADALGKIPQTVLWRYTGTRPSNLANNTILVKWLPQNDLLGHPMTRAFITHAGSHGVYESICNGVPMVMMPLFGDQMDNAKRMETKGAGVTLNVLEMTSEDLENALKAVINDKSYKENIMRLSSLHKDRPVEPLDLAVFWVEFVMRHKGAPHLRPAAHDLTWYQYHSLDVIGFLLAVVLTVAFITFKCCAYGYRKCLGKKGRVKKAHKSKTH

[3] = molecular target: T2, UDP-glucuronosyltransferase 1A9 (Homo sapiens, UniProt O60656); test: Activity of human recombinant UGT1A9 assessed as intrinsic clearance incubated for 5 mins prior to UDPGA addition measured after 90 mins; assay type: ADME; details: recombinant enzyme, 1.5 h
T2 sequence (O60656 whole entry): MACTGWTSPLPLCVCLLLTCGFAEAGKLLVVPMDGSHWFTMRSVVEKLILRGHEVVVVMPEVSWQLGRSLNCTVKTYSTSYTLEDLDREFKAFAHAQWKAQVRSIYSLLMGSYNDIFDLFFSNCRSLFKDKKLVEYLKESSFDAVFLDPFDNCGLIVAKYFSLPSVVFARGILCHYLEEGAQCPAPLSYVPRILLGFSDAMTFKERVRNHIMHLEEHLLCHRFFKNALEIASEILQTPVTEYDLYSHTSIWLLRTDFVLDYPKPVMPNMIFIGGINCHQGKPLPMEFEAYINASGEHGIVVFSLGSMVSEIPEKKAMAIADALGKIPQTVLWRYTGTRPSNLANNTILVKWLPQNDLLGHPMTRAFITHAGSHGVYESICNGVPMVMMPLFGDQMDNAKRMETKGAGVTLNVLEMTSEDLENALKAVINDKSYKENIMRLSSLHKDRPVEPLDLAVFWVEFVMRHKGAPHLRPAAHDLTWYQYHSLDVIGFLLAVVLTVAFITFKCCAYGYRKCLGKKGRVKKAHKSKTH

[4] = molecular target: T3, UDP-glucuronosyltransferase 1A1 (Homo sapiens, UniProt P22309); test: Activity of human recombinant UGT1A1 assessed as intrinsic clearance incubated for 5 mins prior to UDPGA addition measured after 90 mins; assay type: ADME; details: recombinant enzyme, 1.5 h
T3 sequence (P22309 whole entry): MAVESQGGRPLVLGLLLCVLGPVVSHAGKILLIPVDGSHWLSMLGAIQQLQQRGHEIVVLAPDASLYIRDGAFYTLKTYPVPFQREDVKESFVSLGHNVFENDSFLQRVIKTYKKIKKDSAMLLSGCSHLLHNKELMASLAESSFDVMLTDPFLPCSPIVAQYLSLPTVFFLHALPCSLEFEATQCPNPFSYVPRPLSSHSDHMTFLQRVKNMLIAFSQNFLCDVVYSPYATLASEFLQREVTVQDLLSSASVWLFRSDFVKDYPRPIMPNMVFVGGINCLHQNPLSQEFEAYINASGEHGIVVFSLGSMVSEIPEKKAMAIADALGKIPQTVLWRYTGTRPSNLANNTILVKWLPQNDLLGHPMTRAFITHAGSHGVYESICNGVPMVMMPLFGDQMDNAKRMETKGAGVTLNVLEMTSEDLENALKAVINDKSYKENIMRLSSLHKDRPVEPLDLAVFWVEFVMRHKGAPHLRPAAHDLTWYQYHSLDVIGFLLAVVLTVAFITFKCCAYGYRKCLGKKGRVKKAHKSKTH

Liver microsome [5] = test: Drug metabolism in Sprague-Dawley rat liver microsomes assessed as substrate inhibition of IRI-O-4'-monoglucuronide formation incubated for 5 mins prior to UDPGA addition measured after 90 mins by Eadie-Hoftsee plot analysis; assay type: ADME
[6] = molecular target: T4, UDP-glucuronosyltransferase 1A8 (Homo sapiens, UniProt Q9HAW9); test: Activity of human recombinant UGT1A8 assessed as intrinsic clearance incubated for 5 mins prior to UDPGA addition measured after 90 mins; assay type: ADME; details: recombinant enzyme, 1.5 h
T4 sequence (Q9HAW9 whole entry): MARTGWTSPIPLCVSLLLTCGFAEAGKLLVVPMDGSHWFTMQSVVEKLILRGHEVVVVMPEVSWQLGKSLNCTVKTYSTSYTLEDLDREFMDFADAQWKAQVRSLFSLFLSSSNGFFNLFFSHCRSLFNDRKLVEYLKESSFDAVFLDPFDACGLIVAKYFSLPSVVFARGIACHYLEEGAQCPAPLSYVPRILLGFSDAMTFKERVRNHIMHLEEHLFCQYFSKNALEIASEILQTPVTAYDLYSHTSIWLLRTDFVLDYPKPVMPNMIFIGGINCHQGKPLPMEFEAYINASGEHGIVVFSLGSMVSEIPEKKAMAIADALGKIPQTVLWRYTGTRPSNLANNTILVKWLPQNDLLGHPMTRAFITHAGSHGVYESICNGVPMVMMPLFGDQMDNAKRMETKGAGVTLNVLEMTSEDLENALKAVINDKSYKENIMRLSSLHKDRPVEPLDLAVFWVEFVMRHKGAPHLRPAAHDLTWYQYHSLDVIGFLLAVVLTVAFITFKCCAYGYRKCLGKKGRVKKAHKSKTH

[7] = molecular target: T4, UDP-glucuronosyltransferase 1A8; test: Substrate inhibition of human recombinant UGT1A8 assessed as IRI-O-5-monoglucuronide formation incubated for 5 mins prior to UDPGA addition measured after 90 mins by Eadie-Hoftsee plot analysis; assay type: ADME
[8] = Drug metabolism in pig liver microsomes assessed as IRI-O-5-monoglucuronide formation incubated for 5 mins prior to UDPGA addition measured after 90 mins by Eadie-Hoftsee plot analysis; assay type: ADME, Sus scrofa; details: 1.5 h
[9] = molecular target: T1, UDP-glucuronosyltransferase 1A7; test: Substrate inhibition of human recombinant UGT1A7 assessed as IRI-O-5-monoglucuronide formation incubated for 5 mins prior to UDPGA addition measured after 90 mins by Eadie-Hoftsee plot analysis; assay type: ADME
[10] = molecular target: T4, UDP-glucuronosyltransferase 1A8; test: Drug metabolism assessed as human recombinant UGT1A8-mediated irilone-O-5-monoglucuronide formation at 25 uM incubated for 5 mins prior to UDPGA addition measured after 90 mins by HPLC-DAD analysis; assay type: ADME; details: recombinant enzyme, 1.5 h
[11] = molecular target: T3, UDP-glucuronosyltransferase 1A1; test: Substrate inhibition of human recombinant UGT1A1 assessed as IRI-O-5-monoglucuronide formation incubated for 5 mins prior to UDPGA addition measured after 90 mins by Eadie-Hoftsee plot analysis; assay type: ADME
Liver microsome [12] = test: Drug metabolism in human liver microsomes assessed as substrate inhibition of IRI-O-5-monoglucuronide formation incubated for 5 mins prior to UDPGA addition measured after 90 mins by Eadie-Hoftsee plot analysis; assay type: ADME

## O=c1c(-c2ccc(O)cc2)coc2cc3c(c(O)c12)OCO3
Liver microsome [1]
  Km: 124 µM
  Vmax: 1.33 nmol/mg/min
[2]
  CL: 3900 µL/min/mg
[3]
  CL: 53300 µL/min/mg
[4]
  CL: 27200 µL/min/mg
Liver microsome [5]
  Ki: 44.7 µM
[6]
  CL: 20200 µL/min/mg
[7]
  Ki: 22.6 µM
[8]
  Km: 16.8 µM
  Vmax: 0.28 nmol/mg/min
[9]
  Ki: 101 µM
[10]
  Drug metabolism: metabolite_detected
[11]
  Ki: 8.5 µM
Liver microsome [12]
  Ki: 96.9 µM
